Our source for the IC50 values is BindingDB's records for doi:10.1021/jm049478u (Johnson & Johnson Pharmaceutical Research & Development, 2005).

This assay deals with Glycogen synthase kinase-3 beta (Oryctolagus cuniculus). The assay is described as follows: Inhibition of rabbit Glycogen synthase kinase-3 beta.

The term IC50 denotes the concentration at which inhibition is half-maximal. Low values mean inhibition by little substance, high ones a need for much substance. On to `CN(C)CCCn1nc(C2=C(c3cn(-c4ccccc4)c4ccccc34)C(=O)NC2=O)c2ccccc21` [3-[1-(3-Dimethylamino-propyl)-1H-indazol-3-yl]-4-(1-phenyl-1H-indol-3-yl)-pyrrole-2,5-dione], for which half-maximal inhibition (IC50) was put at 270 nM.
